“Also recorded” adds a separate entry of the source.
Experiments:
NLRP3/NLRC4 complex = assay: Biotin-streptavidin pulldown of biotin-labeled NRTIs with NLRC4/NLRP3, immunoblot; format: binding; settings: immunoblot (FIG. 33)
Procedure: FIG. 33. NRTIs directly bind to NLRP3/NLRC4 complex in a reconstituted system. HEK293 cell were transfected with NLRC4 and NLRP3. Biotin-Labeled NRTIs (D4T, AZT) were added to the HEK cells 4 hours later, and cell pellets were collected for biotin streptavidin pulldown. Binding between NRTIs and NLRC4/NLRP3 was detected by immunoblot. […] The bands of NLRC4 and NLRP3 pulled down with biotinylated NRTI are indicated with black arrows.
Finally, we sought to investigate the mechanism through which NRTIs inhibit NLRC4 inflammasome and asked whether this is NLRP3 dependent. We transfected WT and NLRP3 KO BMDMs with flagellin to examine caspase-1 activation using immunoblot. […] To further confirm the mechanism of action of NRTIs, we investigated whether they directly bind to NLRP3/NLRC4 complex in a reconstituted system. We treated flagellin transfected BMDMs with free and biotin labeled D4T and AZT and pulled down biotin.

RPE degeneration [1] = settings: intraperitoneal administration; previously reported; cited from earlier work
NLRC4 inflammasome = assay: Flagellin-induced caspase-1 activation in wild type BMDM pre-treated with NRTIs, immunoblot; format: cell-based, mouse; settings: NRTI at 100 μM for 1 hour, flagellin transfection 3 μg/ml (FIG. 27)
Procedure: FIG. 27. NRTI block Flagellin induced NLRC4 inflammasome in BMDM. Wild type BMDM cells were pre-treated with exemplary NRTIs (D4T, 3TC) at 100 μM for 1 hour, and then stimulated with flagellin transfection (3 μg/ml). Supernatant and cell lysate were collected for Caspase-1 detection. […] The caspase-1 (p20) bands are indicated with black arrow.
FIG. 28. NRTI (3TC) blocks flagellin-induced NLRC4 inflammasome in a dose dependent manner. Wild type BMDM cell were pre-treated with indicated dose of NRTI (3TC) for 1 hour, and then stimulated with Flagellin transfection (3 μg/ml). Supernatants were collected for Caspase-1 detection. […] The caspase-1 (p20) bands are indicated with black arrow.
FIG. 31. Modified NRTIs (K8, K9) block flagellin-induced NLRC4 inflammasome in BMDM. Wild type BMDM cell were pre-treated with regular NRTI (D4T, 3TC), the modified NRTIs 3-Methyl-3TC (K9) or 2-Ethyl-AZT (K8), or NLRP3 inhibitors (MCC950, CY-09) for 1 hour, and then stimulated with flagellin transfection (3 μg/ml). Supernatants were collected for secreted caspase-1 detection. […] The caspase-1 (p20) bands are indicated with black arrow.
Nucleoside reverse transcriptase inhibitors (NRTIs) are HIV therapeutics that inhibit retrovirus replication. We have previously shown that NRTIs inhibit P2X7-mediated NLRP3 inflammasome activation by an endogenous retroelement Alu RNA (SEQ ID NO: 86). Activation of NLRP3 inflammasome by Alu RNA (SEQ ID NO: 86) causes the death of retinal pigment epithelium (RPE) in geographic atrophy, a severe form of AMD. […] Currently, multiple NLRP3 inflammasome inhibitors such as MCC950, CY09 are available however, there are no inhibitors of NLRC4. So, a need exists to develop inhibitors of NLRC4 inflammasome to study NLRC4 driven diseases. Here, we show for the first time that NRTIs block flagellin induced NLRC4 inflammasome. We pretreated flagellin transfected BMDMs with DT4 and 3TC to examine caspase-1 activation.
NLRC4 oligomerization is another hallmark of inflammasome activation where high-molecular mass NLRC4 protein complexes are assembled. […]

ASC oligomerization [2] = assay: Alu RNA induced ASC oligomerization in human RPE cells after siRNA knockdown; format: cell-based; settings: 24 hours later Alu RNA 100 pmol (FIG. 25A)
Procedure: (§1) FIGS. 25A and 25B. NLRC4 knockdown blocks Alu RNA (SEQ ID NO: 86) induced ASC oligomerization and RPE degeneration. Human RPE cell treated with siRNA target on NLRC4 (SMARTPOOL siRNA for NLRC4: CAACUGGGCUCCUCUGUAA; SEQ ID NO: 93) and NAIP (SMARTPOOL siRNA for NAIP: GUAAAGAGCUAUAUGGAUA; SEQ ID NO: 94), 24 hours later, treated with Alu RNA (SEQ ID NO: 86 at 100 pmol) FIG. 25A. […] The band of ASC oligomers was indicated by black arrow. […] The hyperdense areas due to the RPE degeneration in fundus images and ZO-1 disorganizations in RPE sheet are indicated by white arrows.
(§2) Next, we asked whether Alu RNA (SEQ ID NO: 86) also triggered NLRC4 inflammasome activation in human RPE cells. We performed immunofluorescence staining experiments to examine whether Alu RNA (SEQ ID NO: 86) can induce NLRC4 speck formation in human RPE cells. We noticed punctate structures resembling specks of NLRC4 in human RPE cells in response to Alu RNA (SEQ ID NO: 86) treatment (FIG. 24A). […] We further investigated downstream events of NLRC4 inflammasome activation by studying NLRC4-induced ASC oligomerization, a critical step involved in caspase-1 cleavage. NLRC4 siRNA, when co-administered with Alu RNA (SEQ ID NO: 86), blocked ASC oligomerization in vitro (FIG. 25A) and RPE degeneration in vivo (FIG. 25B).

RPE degeneration [3] = assay: Alu RNA induced RPE degeneration in mice, fundus images and ZO-1 staining; format: in vivo; settings: mice, subretinal Alu RNA; fundus and ZO-1 (FIGS. 25B, 26)
Procedure: as §1
FIG. 26. […] Wilde type of C57/B6 mice were intravitreally injected with siRNA target on Ddx17 (siRNA for Ddx17: GGCUAGAUGUGGAAGAUGU; SEQ ID NO: 95), and two days later, Nlrc4^−/−, Naip1-6^−/−, mice and Ddx17 knockdown mice were subretinally injected with Alu RNA (SEQ ID NO: 86). […] The hyperdense areas due to the RPE degeneration in fundus images and ZO-1 disorganizations in RPE sheet are indicated by white arrows.
as §2
We delivered Alu RNA (SEQ ID NO: 86) or Alu RNA (SEQ ID NO: 86)+siDDX17 subretinally in WT or NLRC4 KO or NAIP1-6 KO mice and examined for RPE degeneration using fundus photos and ZO-1 staining as described previously.

p-NLRC4 and caspase-1 = assay: Dicer1 knockdown induced inflammasome activation in BMDM, immunoblot; format: cell-based, mouse
Text: FIGS. 20A and 20B. DDX17-NLRC4-NLRP3 are required for Dicer1 knockdown induced inflammasome activation. FIG. 20A. Dicer1 knockdown (siRNA for Dicer 1: GCAGUUGUCCUAAACAGAU; SEQ ID NO: 92) causes increase of p-NLRC4 and caspase-1 activation, which were blocked in Ddx17^−/− iBMDMs. FIG. 20B. Dicer1 knockdown-induced caspase-1 cleavage was impaired in Nlrc4^−/− and Nlrp3^−/− BMDMs. The caspase-1 (p20) bands are indicated with black arrows.
We have previously shown that DICER deficiency mediated accumulation of Alu RNA induces NLRP3 inflammasome activation. So we examined whether DICER knockdown could also induce DDX17-NLRC4-NLRP3 signaling. WT and DDX17 KO BMDMs were transfected with siDICER to examine NLRC4 phosphorylation and caspase-1. […] We then determined phosphorylation of NLRC4 and caspase-1 activation in WT, NLRC4 KO and NLRP3 KO BMDMs after transfection with siDICER or sicontrol.

IL-1β = assay: Alu RNA induced IL-1β release in THP1 cells after siRNA knockdown, ELISA; format: cell-based, human; settings: siRNA knockdown (FIG. 12B)
Text: (§3) FIGS. 12A and 12B. DDX17 knockdown blocks Alu RNA (SEQ ID NO: 86) induced ASC oligomerization and IL-1β release. FIG. 12A. siRNA mediated DDX17 knockdown (siRNA for DDX17: CCAAUCUGAUGUAUCAGGA; SEQ ID NO: 91), but not Ddx5 (siRNA for DDX5: GGAAAUUACAGUUAGAGGU; SEQ ID NO: 89) in THP1 cells, blocked Alu RNA (SEQ ID NO: 86) induced ASC oligomerization. The band of ASC oligomers were indicated by black arrow. FIG. 12B. siRNA mediated DDX17 knockdown, but not Ddx5 in THP1 cells, blocked Alu RNA (SEQ ID NO: 86) induced IL-1β release.
(§4) To further confirm that DDX17 is the sensor for NLRC4, we investigated caspase-1 cleavage by immunoblotting and IL-1β secretion by ELISA in Alu RNA (SEQ ID NO: 86) or mock treated THP1 cells and DDX17 KO BMDMs respectively.

ASC oligomerization [4] = assay: Alu RNA induced ASC oligomerization in THP1 cells after siRNA knockdown; format: cell-based, human; settings: siRNA knockdown (FIG. 12A)
Text: as §3, §4

[5] = target: T1, mouse NLR family CARD domain containing 4 (Nlrc4) (mouse, UniProt Q3UP24 1-1024); assay: immunofluorescence of endogenous ASC specks and NLRC4 puncta in SINE RNA-transfected BMDMs
T1 construct: Endogenous protein of mouse BMDM / iBMDM
Procedure: FIGS. 3A and 3B. SINE RNA-induced ASC oligomerization is dependent on NLRC4 (BMDM). FIG. 3A. Immunofluorescence images of endogenous ASC specks and NLRC4 puncta in BMDMs after transfected with Alu (SEQ ID NO: 86) or B2 (SEQ ID NO: 88) RNA or transfection reagents only (Mock). […] Moreover, NLRC4 proteins assembled as puncta, and co-resided with ASC specks. FIG. 3B. ASC oligomerizations were evaluated in wild-type and Nlrc4^{-/-} BMDMs through cross-linking and western blot. […] The bands of oligomeric ASC protein were indicated by black arrow.
The activated NLRC4 inflammasome undergoes oligomerization by assembling into high-molecular mass multiprotein complexes. We first investigated in situ assembling of NLRC4 and apoptosis speck (ASC) like protein complexes in response to SINE RNA treatment of BMDMs. Immunofluorescence studies show increased NLRC4 and ASC specks in SINE RNA-treated BMDMs compared to mock-treated cells (FIG. 3A). To assess NLRC4 inflammasome assembly, WT and NLRC4 KO BMDM cells were treated with Alu RNA (SEQ ID NO: 86). Disuccinimidyl suberate (DSS) cross-linked lysates were resolved using denaturing SDS-PAGE to detect ASC oligomers and cell lysates were resolved using native polyacrylamide gel electrophoresis (NATIVE-PAGE) to detect NLRC4 oligomerization. […] NLRC4/ASC oligomerization is essential for the cleavage of pro-caspase-1 into its active form p20 and IL-1β release.

T1 sequence (Q3UP24 whole entry, the tested form may be a part): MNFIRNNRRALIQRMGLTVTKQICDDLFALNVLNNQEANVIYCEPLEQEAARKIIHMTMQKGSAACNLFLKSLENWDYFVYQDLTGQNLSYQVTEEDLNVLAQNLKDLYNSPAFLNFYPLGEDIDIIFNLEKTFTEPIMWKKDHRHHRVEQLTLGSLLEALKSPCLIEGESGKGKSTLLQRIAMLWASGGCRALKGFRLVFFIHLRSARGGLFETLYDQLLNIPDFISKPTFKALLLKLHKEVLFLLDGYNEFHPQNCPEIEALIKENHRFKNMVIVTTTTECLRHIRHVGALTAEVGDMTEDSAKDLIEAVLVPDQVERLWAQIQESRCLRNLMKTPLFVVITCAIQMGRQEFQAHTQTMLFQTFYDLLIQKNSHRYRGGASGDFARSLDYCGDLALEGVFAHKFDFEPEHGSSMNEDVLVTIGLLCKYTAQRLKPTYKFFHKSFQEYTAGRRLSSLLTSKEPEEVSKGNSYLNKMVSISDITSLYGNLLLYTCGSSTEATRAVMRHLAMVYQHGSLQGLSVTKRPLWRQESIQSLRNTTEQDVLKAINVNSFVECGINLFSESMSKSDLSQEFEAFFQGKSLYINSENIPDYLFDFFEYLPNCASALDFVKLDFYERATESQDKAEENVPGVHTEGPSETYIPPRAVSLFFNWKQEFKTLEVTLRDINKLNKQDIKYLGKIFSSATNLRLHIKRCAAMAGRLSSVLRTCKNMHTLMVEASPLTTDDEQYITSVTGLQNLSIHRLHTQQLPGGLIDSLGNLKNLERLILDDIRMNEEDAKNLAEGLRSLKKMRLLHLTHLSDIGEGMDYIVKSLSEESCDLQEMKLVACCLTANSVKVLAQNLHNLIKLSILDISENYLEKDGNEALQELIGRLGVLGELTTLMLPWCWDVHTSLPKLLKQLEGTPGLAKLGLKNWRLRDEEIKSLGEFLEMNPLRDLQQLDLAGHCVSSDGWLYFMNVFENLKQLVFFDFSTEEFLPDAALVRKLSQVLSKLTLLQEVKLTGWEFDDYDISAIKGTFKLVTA

Cc1cn([C@H]2C[C@H](N=[N+]=[N-])[C@@H](CO)O2)c(=O)[nH]c1=O [AZT, 3′-deoxy-3′-azidothymidine 1-[(2R,4S,5S)-4-Azido-5-(hydroxymethyl)oxolan-2-yl]-5-methylpyrimidine-2,4-dione]
binding of biotin-labeled NRTI to NLRC4 and NLRP3 (NLRP3/NLRC4 complex): interacted with NLRP3 and NLRC4; also recorded: could directly bind to NLRC4 and NLRP3 protein
Alu RNA induced RPE degeneration in mice (RPE degeneration [1]): prevented

Cc1cn([C@H]2C=C[C@@H](CO)O2)c(=O)[nH]c1=O [D4T, 1-[(2R,5S)-5-(hydroxymethyl)-2,5-dihydrofuran-2-yl]-5-methyl-1,2,3,4-tetrahydropyrimidine-2,4-dion]
binding of biotin-labeled NRTI to NLRC4 and NLRP3 (NLRP3/NLRC4 complex): interacted with NLRP3 and NLRC4; also recorded: could directly bind to NLRC4 and NLRP3 protein
Alu RNA induced RPE degeneration in mice (RPE degeneration [1]): prevented
flagellin induced caspase-1 activation (NLRC4 inflammasome): blocked; also recorded: reduced

NLRC4 siRNA: SMARTPOOL siRNA for NLRC4: CAACUGGGCUCCUCUGUAA; SEQ ID NO: 93 (listed as RNA, chemistry not given here)
Alu RNA induced ASC oligomerization, human RPE cells (ASC oligomerization [2]): blocked
Alu RNA induced ASC oligomerization, human RPE cells (ASC oligomerization [2]; listed as SMARTPOOL siRNA for NLRC4): reduced
Alu RNA induced RPE degeneration in vivo, effect of siRNA (RPE degeneration [3]): blocked

siDICER: siRNA for Dicer 1: GCAGUUGUCCUAAACAGAU; SEQ ID NO: 92 (listed as RNA, chemistry not given here)
phosphorylation of NLRC4 after Dicer1 knockdown (p-NLRC4 and caspase-1; WT BMDMs (FIG. 20A)): induced the phosphorylation of NLRC4
caspase-1 activation after Dicer1 knockdown (p-NLRC4 and caspase-1; WT BMDMs (FIG. 20B)): induced the activation of caspase-1

siRNA for Ddx17: siRNA for Ddx17: GGCUAGAUGUGGAAGAUGU; SEQ ID NO: 95, injected in mice (chemistry not fully specified)
Alu RNA induced IL-1β release, THP1 cells, ELISA (IL-1β): blocked
Alu RNA induced RPE degeneration in vivo, effect of siRNA (RPE degeneration [3]): blocked
Alu RNA induced ASC oligomerization, THP1 cells (ASC oligomerization [4]): blocked

B1: mouse apoptosis-associated speck-like protein containing a CARD (ASC) (other, UniProt Q9EPB4 1-193, looked up)
chain: MGRARDAILDALENLSGDELKKFKMKLLTVQLREGYGRIPRGALLQMDAIDLTDKLVSYYLESYGLELTMTVLRDMGLQELAEQLQTTKEESGAVAAAASVPAQSTARTGHFVDQHRQALIARVTEVDGVLDALHGSVLTEGQYQAVRAETTSQDKMRKLFSFVPSWNLTCKDSLLQALKEIHPYLVMDLEQS
notes: Endogenous protein of mouse BMDM
binding result [5]: binds

From patent US20220280543A1, “DDX17 AND NLRC4 TARGETING FOR INFLAMMATORY DISEASES” (University of Virginia Patent Foundation, priority 2019, published 2022)
